{"source": "patent US20250186401A1", "about": "“COMBINATORIAL ACTIVATION OF GABA(B) AND A2 ADRENERGIC RECEPTORS PROVIDES RELIEF FROM STRESS INDUCED DEPRESSION” (University of Florida Research Foundation, Incorporated, priority 2022, published 2025)", "test_system": "mice subjected to UCMS", "test": "TST in unpredictable chronic mild stress (UCMS) model", "type": "in vivo", "conditions": "UCMS mice (4 weeks); injection day 29, TST 30 min after; vs vehicle; FIG. 3B", "procedure": "TST was performed 30 min after injection time. To perform the TST, the tails of the mice were wrapped with tape that covered approximately 4/5 of the tail length and then fixed upside down on a hook. The immobility time of each mouse was recorded and tracked over a 6 min period. The Porsolt FST was conducted using vertical clear glass cylinder (10 cm in diameter, 25 cm in height) filled with water (25° C.). The mice spent 6 min in the water and immobility was scored from 2 to 6 min. A mouse was regarded as immobile when floating motionless or making only those movements necessary to keep its head above the water.\nThis study investigated the effects of ClonBac in a mouse model of unpredictable chronic mild stress (0). For the UCMS paradigm, mice were housed in individual cages and were subjected to 4 weeks of stressors, with two stressors applied within a 24 hr period. Stressors were applied pseudo-randomly and included: intermittent bell (10 db, 1/10 s), continuous white noise for 4 h, rat odor, 45° cage tilt for 4 h, 30 minute cage shaking, soiled bedding for 8 hr, paired housing with a new partner for 2 h, overnight illumination, removal of nesting material for 12 hr, placement of a novel object in home cage for 3 h, and physical restraint for 1 h. Stressors continued to be applied during the behavioral testing phase. […]", "data": [{"smiles": "NCC(CC(=O)O)c1ccc(Cl)cc1", "note": "(stereo not drawn) [baclofen, β-(4-chlorophenyl)-γ-aminobutyric acid]", "values": [{"measurement": "TST immobility time", "result": "significantly attenuated immobility TST time"}]}]}
